The record followed here is PMC9572521, “Synthesis, Docking Studies and Pharmacological Evaluation of Serotoninergic Ligands Containing a 5-Norbornene-2-Carboxamide Nucleus” (Molecules, 2022).

Where two headings read alike, the source gives them in different places.

The target of one assay is T1, 5-HT1A receptor (Rattus norvegicus, UniProt P19327).
T1 construct: 15 μg/mL of hippocampus homogenate was incubated in triplicate with 0.8 nM; from tissue; host or cells: rat hippocampus homogenate
T1 sequence (P19327 1-422): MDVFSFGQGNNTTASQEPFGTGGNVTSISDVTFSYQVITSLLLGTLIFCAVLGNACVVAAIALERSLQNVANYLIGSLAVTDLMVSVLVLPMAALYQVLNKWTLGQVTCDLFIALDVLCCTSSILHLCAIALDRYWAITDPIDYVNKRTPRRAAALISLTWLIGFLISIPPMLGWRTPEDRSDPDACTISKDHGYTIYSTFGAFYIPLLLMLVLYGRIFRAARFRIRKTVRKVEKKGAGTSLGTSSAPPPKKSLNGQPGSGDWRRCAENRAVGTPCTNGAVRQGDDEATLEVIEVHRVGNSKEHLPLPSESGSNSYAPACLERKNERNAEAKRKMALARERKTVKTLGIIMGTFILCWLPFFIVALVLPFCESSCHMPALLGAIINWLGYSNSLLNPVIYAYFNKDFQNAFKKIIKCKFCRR
Put plainly: Functional 5-HT1A receptor [35S]GTPγS assay (agonist mode).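 On all read-outs here: male Sprague-Dawley rat hippocampal membranes incubated 90 min at 37 °C, bound label counted by scintillation after filtration, non-specific binding defined with 100 µM unlabeled GTPγS, one-site curve fit.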 To be noted: [35S]GTPγS; for Emax: read-out: 5-HT1A Receptor G-Protein Stimulation Emax (%) ± SEM; for agonist activity at the 5-HT1A receptor: result in words. The format is biochemical.

The target in a further assay is T2, D2 receptor (Rattus norvegicus, UniProt P61169).
T2 construct: 15μg/mL of striatal homogenate was incubated in triplicate; from tissue; host or cells: rat striatum homogenate
In words: Functional D2 receptor [35S]GTPγS assay (antagonist mode vs dopamine; basal for agonism).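 Further: [35S]GTPγS binding counted by scintillation after 60 min at 30 °C, nonspecific binding defined with 100 µM unlabeled GTPγS, inhibition curves fitted by one-site nonlinear regression.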 To be noted: against 40 µM dopamine, rat striatal homogenate. It is filed as biochemical.

In the next assay the target is 5-HT2A receptor (Rattus norvegicus, UniProt P14842). Put plainly: 5-HT2A competition binding assay ([3H]ketanserin, frontal cortex homogenates).
In another assay the target is T3, human 5-HT2C receptor (Homo sapiens, UniProt P28335).
T3 sequence (P28335 33-458): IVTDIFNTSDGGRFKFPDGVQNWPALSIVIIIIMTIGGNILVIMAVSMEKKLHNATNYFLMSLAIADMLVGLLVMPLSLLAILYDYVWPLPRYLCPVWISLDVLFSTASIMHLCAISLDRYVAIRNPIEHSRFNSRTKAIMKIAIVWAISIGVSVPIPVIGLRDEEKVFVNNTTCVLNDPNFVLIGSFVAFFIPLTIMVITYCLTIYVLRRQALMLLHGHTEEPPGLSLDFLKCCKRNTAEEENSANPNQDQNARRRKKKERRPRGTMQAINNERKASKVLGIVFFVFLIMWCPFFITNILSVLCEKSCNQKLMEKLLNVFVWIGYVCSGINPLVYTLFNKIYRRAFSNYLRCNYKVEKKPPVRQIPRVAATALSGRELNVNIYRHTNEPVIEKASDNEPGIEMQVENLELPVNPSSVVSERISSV
In words: 5-HT2C competition binding assay ([3H]mesulergine, transfected cell membranes). To be noted: [3H]mesulergine, human 5-HT2C membranes.

Assay [1] has as its system 5-HT2A receptors (5-HT-induced contractions in the rat ileum). In words: 5-HT-evoked contractions of isolated rat ileum. The following applies: for Emax, maximal inhibitory effect on 5-HT-induced contractions in the rat ileum: 5-HT 10^−5 M, compounds 10^−8–10^−5 M.
Setting [2] is: rat hippocampus homogenate, ± SEM, read-out: 5-HT1A Receptor G-Protein Stimulation pEC50 (converted).
Where [3] appears, read: read-out: D2 receptor antagonistic activity IC50 (95% CI).
Where [4] appears, read: read-out: D2 receptor antagonistic activity pIC50 (M ± SEM) (converted).
The mark [5] stands for this setting: rat hippocampus homogenate, read-out: 5-HT1A Receptor G-Protein Stimulation EC50 (95% CI).
Where [6] appears, read: ± SEM, read-out: 5-HT2C pKi (converted).
Setting [7] is: rat hippocampus homogenate, ± SEM.

Sequence of 5-HT2A receptor (P14842 whole entry): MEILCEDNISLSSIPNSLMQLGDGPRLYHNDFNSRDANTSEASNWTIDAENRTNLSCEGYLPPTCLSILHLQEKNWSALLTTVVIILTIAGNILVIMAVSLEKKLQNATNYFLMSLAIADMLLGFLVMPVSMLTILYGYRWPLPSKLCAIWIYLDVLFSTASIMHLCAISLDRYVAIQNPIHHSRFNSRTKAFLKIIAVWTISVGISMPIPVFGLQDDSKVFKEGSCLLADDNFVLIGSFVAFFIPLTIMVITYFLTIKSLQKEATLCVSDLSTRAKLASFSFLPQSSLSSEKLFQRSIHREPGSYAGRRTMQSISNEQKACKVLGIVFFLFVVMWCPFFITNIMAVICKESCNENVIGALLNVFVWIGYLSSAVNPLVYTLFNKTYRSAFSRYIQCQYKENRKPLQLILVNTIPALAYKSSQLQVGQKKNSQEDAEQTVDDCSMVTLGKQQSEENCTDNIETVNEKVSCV
T2 sequence (P61169 whole entry): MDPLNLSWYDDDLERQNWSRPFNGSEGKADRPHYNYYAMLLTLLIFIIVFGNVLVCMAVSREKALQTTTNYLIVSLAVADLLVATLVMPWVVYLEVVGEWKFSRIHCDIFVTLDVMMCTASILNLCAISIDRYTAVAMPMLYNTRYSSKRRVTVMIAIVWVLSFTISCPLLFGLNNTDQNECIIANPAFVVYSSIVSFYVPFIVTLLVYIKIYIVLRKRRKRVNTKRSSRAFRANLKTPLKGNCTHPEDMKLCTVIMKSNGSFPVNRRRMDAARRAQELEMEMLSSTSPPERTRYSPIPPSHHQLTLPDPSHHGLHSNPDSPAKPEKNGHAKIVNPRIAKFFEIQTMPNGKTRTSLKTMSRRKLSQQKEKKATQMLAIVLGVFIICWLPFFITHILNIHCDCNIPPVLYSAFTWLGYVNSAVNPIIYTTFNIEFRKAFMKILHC

As for `COc1ccccc1N1CCN(CCCNC(=O)C2CC3C=CC2C3)CC1` (single isomer, unassigned) [Norbo-5, Exo-N-(3-(4-(2-methoxyphenyl)piperazin-1-yl)propyl)bicyclo[2.2.1]hept-5-ene-2-carboxamide], the “5-HT1A Receptor G-Protein Stimulation Emax (%) ± SEM” value at 5-HT1A receptor (rat hippocampus homogenate) is 140 ± 25.2 ^&& %. The EC50 at 5-HT1A receptor (setting [2]) was 10 µM. For the same molecule, the IC50 was 33.4 µM on D2 receptor (setting [3]) and 33.9 µM at D2 receptor (setting [4]). Besides, the Ki amounted to 0.0457 µM on 5-HT2A receptor (read-out: 5-HT2A Ki (95% CI)) and 1.82 µM at human 5-HT2C receptor (read-out: 5-HT2C Ki (95% CI)). The “Emax, maximal inhibitory effect on 5-HT-induced contractions in the rat ileum” value (“Emax, maximal inhibitory effect” below) in assay [1] came to 15.42%.
`O=C(c1ccc(F)cc1)C1CCN(CCn2c(=O)[nH]c3ccccc3c2=O)CC1` [Ketanserin, reference compound]: the “effect on contractions induced by 5-HT” value in assay [1] (preliminary experiments, 0.1 µM) is given as “depressed the contractions induced by 5-HT”.
Regarding `O=C(NCCCN1CCN(c2ccccc2F)CC1)C1CC2C=CC1C2` (stereo not drawn) [Norbo-16, endo.-N-(3-(4-(2-fluorophenyl)piperazin-1-yl)propyl)bicyclo[2.2.1]hept-5-ene-2-carboxamide], the “5-HT1A Receptor G-Protein Stimulation Emax (%) ± SEM” value at 5-HT1A receptor (rat hippocampus homogenate) is recorded as 182 ± 5.5 **^,# %. At 5-HT1A receptor (setting [5]), the EC50 is 0.939 µM. Moreover, the IC50 on D2 receptor (setting [3]) worked out at 41.5 µM. The values for the Ki at 5-HT2A receptor (read-out: 5-HT2A Ki (95% CI)) and on human 5-HT2C receptor (read-out: 5-HT2C Ki (95% CI)) were 0.0733 µM and 1.54 µM, respectively. The “Emax, maximal inhibitory effect” value in assay [1] amounted to 23.47%.
As for `O=C(NCCCN1CCN(c2ccc(F)cc2)CC1)C1CC2C=CC1C2` (stereo not drawn) [Norbo-17, Exo-N-(3-(4-(4-fluorophenyl)piperazin-1-yl)propyl)bicyclo[2.2.1]hept-5-ene-2-carboxamide], the “5-HT1A Receptor G-Protein Stimulation Emax (%) ± SEM” value at 5-HT1A receptor (rat hippocampus homogenate) is 122 ± 2.0 ^&&& %. In addition, the values for the EC50 at 5-HT1A receptor (setting [5]) and on 5-HT1A receptor (setting [2]) were 0.553 µM and 0.631 µM, respectively. Further, the values for the IC50 on D2 receptor (setting [3]) and on D2 receptor (setting [4]) were 59.5 µM and 60.3 µM, respectively. Also, the results for the Ki on 5-HT2A receptor (read-out: 5-HT2A Ki (95% CI)), at human 5-HT2C receptor (read-out: 5-HT2C Ki (95% CI)) and on human 5-HT2C receptor (setting [6]) were 0.0227 µM, 2.36 µM and 2.4 µM, respectively. For the same molecule, in assay [1], the “Emax, maximal inhibitory effect” value was 32.50%.
With `O=C(NCCCN1CCN(c2cccc(C(F)(F)F)c2)CC1)C1CC2C=CC1C2` (stereo not drawn) [Norbo-19, Exo-N-(3-(4-(3-(trifluoromethyl)phenyl)piperazin-1-yl)propyl)bicyclo[2.2.1]hept-5-ene-2-carboxamide], the Emax – broadly, the size of the effect at its maximum, as opposed to the concentration needed – at 5-HT1A receptor (rat hippocampus homogenate) was found to be 162 ± 2.1%. Besides, the EC50 on 5-HT1A receptor (setting [2]) was 0.316 µM. Besides, the IC50 at D2 receptor (setting [3]) was found to be 144 µM. Moreover, the Ki turned out to be 0.0426 µM at 5-HT2A receptor (read-out: 5-HT2A Ki (95% CI)) and 0.167 µM at human 5-HT2C receptor (read-out: 5-HT2C Ki (95% CI)). Also, in assay [1], the “Emax, maximal inhibitory effect” value stood at 39.00%.
For `O=C(NCCCN1CCN(c2cccc(C(F)(F)F)c2)CC1)C1CC2C=CC1C2` (stereo not drawn) [Norbo-20, endo-N-(3-(4-(3-(trifluoromethyl)phenyl)piperazin-1-yl)propyl)bicyclo[2.2.1]hept-5-ene-2-carboxamide], the “5-HT1A Receptor G-Protein Stimulation Emax (%) ± SEM” value at 5-HT1A receptor (rat hippocampus homogenate) is 167 ± 1.4 %. In addition, the EC50 at 5-HT1A receptor (setting [2]) was 0.2 µM. Moreover, the IC50 on D2 receptor (setting [3]) is 52.7 µM; on D2 receptor (setting [4]), 56.2 µM. The Ki on 5-HT2A receptor (read-out: 5-HT2A Ki (95% CI)) is 0.0229 µM; on human 5-HT2C receptor (read-out: 5-HT2C Ki (95% CI)), 1.95 µM. Further, the “Emax, maximal inhibitory effect” value in assay [1] is on record as 21.79%.
For `O=C(NCCCN1CCN(Cc2ccc3c(c2)OCO3)CC1)C1CC2C=CC1C2` (stereo not drawn) [Norbo-25, Exo-N-(3-(4-(benzo[d][1,3]dioxol-5-ylmethyl)piperazin-1-yl)propyl)bicyclo[2.2.1]hept-5-ene-2-carboxamide], the EC50 at 5-HT1A receptor (setting [5]) is 1.91 µM. For the same molecule, on 5-HT1A receptor (rat hippocampus homogenate), the Emax turned out to be 184 ± 6.4%. Further, the “D2 receptor antagonistic activity IC50 (95% CI, µM)” value on D2 receptor is “no activity”. The “D2 receptor antagonistic activity pIC50 (M ± SEM)” value at D2 receptor was “no activity”. Moreover, the Ki was 0.372 µM on 5-HT2A receptor (± SEM, read-out: 5-HT2A pKi (converted)) and 1.05 µM at human 5-HT2C receptor (read-out: 5-HT2C Ki (95% CI)).
Consider `O=C(NCCCN1CCN(Cc2ccc3c(c2)OCO3)CC1)C1CC2C=CC1C2` (stereo not drawn) [Norbo-26, endo-N-(3-(4-(benzo[d][1,3]dioxol-5-ylmethyl)piperazin-1-yl)propyl)bicyclo[2.2.1]hept-5-ene-2-carboxamide], for which the “5-HT1A Receptor G-Protein Stimulation Emax (%) ± SEM” value on 5-HT1A receptor (rat hippocampus homogenate) was found to be 178 ± 22.6 %. Also, the EC50 on 5-HT1A receptor (setting [5]) is 7.5 µM. At D2 receptor, the “D2 receptor antagonistic activity IC50 (95% CI, µM)” value was “no activity” and the “D2 receptor antagonistic activity pIC50 (M ± SEM)” value is “no activity”. Further, the Ki on 5-HT2A receptor (read-out: 5-HT2A Ki (95% CI)) was determined as 0.584 µM. For the same molecule, on human 5-HT2C receptor (setting [6]), the Ki is 2.29 µM.
`O=C(NCCCN1CCN(C(=O)c2ccco2)CC1)C1CC2C=CC1C2` (stereo not drawn) [Norbo-27, Exo-N-(3-(4-(furan-2-carbonyl)piperazin-1-yl)propyl)bicyclo[2.2.1]hept-5-ene-2-carboxamide]: at 5-HT1A receptor (rat hippocampus homogenate), the “5-HT1A Receptor G-Protein Stimulation EC50 (95% CI, nM)” value was “no activity” and the “5-HT1A Receptor G-Protein Stimulation Emax (%) ± SEM” value was “no activity”. The “5-HT1A Receptor G-Protein Stimulation pEC50” value on 5-HT1A receptor (setting [7]) was “no activity”. For the same molecule, the “agonist activity at the 5-HT1A receptor” value on 5-HT1A receptor is recorded as “no agonist activity”. Further, on D2 receptor (setting [3]), the IC50 is 66.6 µM. Moreover, the Ki on 5-HT2A receptor (read-out: 5-HT2A Ki (95% CI)) stood at 1.13 µM. Besides, at human 5-HT2C receptor (read-out: 5-HT2C Ki (95% CI)), the Ki stood at 1.78 µM.
As to `O=C(NCCCN1CCN(C(=O)c2ccco2)CC1)C1CC2C=CC1C2` (stereo not drawn) [Norbo-28, endo-N-(3-(4-(furan-2-carbonyl)piperazin-1-yl)propyl)bicyclo[2.2.1]hept-5-ene-2-carboxamide], the “5-HT1A Receptor G-Protein Stimulation pEC50” value at 5-HT1A receptor (setting [7]) is “no activity”. For the same molecule, the “agonist activity at the 5-HT1A receptor” value at 5-HT1A receptor is “no agonist activity”. Moreover, the “D2 receptor antagonistic activity IC50 (95% CI, µM)” value on D2 receptor is “no activity”. For the same molecule, on D2 receptor, the “D2 receptor antagonistic activity pIC50 (M ± SEM)” value is “no activity”. Further, the values for the Ki at 5-HT2A receptor (read-out: 5-HT2A Ki (95% CI)) and on human 5-HT2C receptor (read-out: 5-HT2C Ki (95% CI)) were 1.07 µM and 3.93 µM, respectively.
On to `NC1=N[C@H](O)[C@H]2[C@H]3O[C@]4(O)O[C@@H]([C@@H](O)[C@@]2(N1)[C@@H]4O)[C@]3(O)CO` [tetrodotoxin, reference compound], for which the “effect on contractions induced by 5-HT” value in assay [1] is given as “did not affect the contractions by 5-HT”.
